The values below come from BindingDB's records for doi:10.1021/acsmedchemlett.9b00264 (Xiamen University, 2019).

Test [1] can be described thus: Inhibition of JMJD6 in human HeLa cells assessed as decrease in cell proliferation measured after 72 hrs by CellTiter 96 AQueous one solution cell proliferation assay.
The nature of test [2]: Inhibition of JMJD6 in human […] cells assessed as decrease in cell proliferation measured after 72 hrs by CellTiter 96 AQueous one solution cell proliferation assay.

A word on the IC50: it is the concentration that gives 50% inhibition.

Take `Cc1ccc2oc(=O)c(-c3nc4cnccc4[nH]3)cc2c1`: the values for the 50% inhibitory concentration (IC50) in test [1] and in test [2] were 2.44 µM and 10.2 µM, respectively.
